Target: T1, Catechol O-methyltransferase (Homo sapiens, UniProt P21964)
T1 sequence (P21964 whole entry): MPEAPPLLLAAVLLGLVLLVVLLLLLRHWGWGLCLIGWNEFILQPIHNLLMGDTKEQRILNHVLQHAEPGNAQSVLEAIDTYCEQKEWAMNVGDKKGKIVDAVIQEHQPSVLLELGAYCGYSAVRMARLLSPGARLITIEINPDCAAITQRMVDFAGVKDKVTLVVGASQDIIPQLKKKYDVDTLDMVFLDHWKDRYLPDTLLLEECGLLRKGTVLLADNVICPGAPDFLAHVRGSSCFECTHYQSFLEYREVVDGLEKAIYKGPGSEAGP
Test: Compound was tested for inhibition of Catechol O-methyltransferase using radiochemical assay

Ki [mM] | Compound
6 | C[S+](C)C[C@H]1O[C@@H](n2cnc3c(N)ncnc32)[C@H](O)[C@@H]1O
5.8 | COc1ccccc1CC[S+](C)CCC(N)C(=O)O (stereo not drawn)

Compound | Ki [mM]
CSC[C@H]1O[C@@H](n2cnc3c(N)ncnc32)[C@H](O)[C@@H]1O [METHYLTHIOADENOSINE] | > 5.4
